Where a SMILES comes first, the peptide text is derived from it. The star is where a group is joined. NHC(CH2O-Palmitoyl)3 = CCCCCCCCCCCCCCCC(=O)OCC(COC(=O)CCCCCCCCCCCCCCC)(COC(=O)CCCCCCCCCCCCCCC)N*; X5 = CCCCCCCCCCCCCCCC(=O)OCC(CO)(COC(=O)CCCCCCCCCCCCCCC)N*; X1 = CCCCCCCCCCCCCCCC(=O)OCC(CO)(CO)N*; NHC(CH2OH)3 = OCC(CO)(CO)N*
Columns and labels:
Cos 1 cells = assay: Transfection of pSVLCAT, CAT assay, Cos 1; type: cell-based, African Green Monkey; settings: for transfection, number of palmitates: R1-R4 experiment a, Cos 1, K2 A linker; for Transfection (CAT): Table 1, Cos 1, optimised level of agent
Description: To test the transfection properties of the lead compound K3ATP3 (VerafectinA3), whole uncut plasmid carrying the gene encoding CAT (chloramphenicol acetyl transferase) under the control of the SV40 late promoter, pSVLCAT (Cameron, F. H. and Jennings, P. A. (1989) PNAS 86, 9139-9143) was mixed with the test agent and put on Cos 1 cells under various conditions. After 48 hours of culture the level of secreted CAT was assayed from the culture medium.
Solution I: 1 μg Plasmid DNA in 500 μl Dulbeccos Modified Eagles Medium (DME)
Solution II: 0-20 μl VerafectinA3 (2.5 mg/ml 25% DMSO) in 500 μl DME, Vortex
Combine solution I and II, vortex briefly and incubate at room temperature for 10 min.
Add mix to washed cells in 60 mm tissue culture dishes (seeded 0.5×10^6 /dish previous day) for 6 hrs at 37° C., 5% C02. Add 2 ml DME+10% FCS for remainder of 48 hrs. Assay CAT levels in tissue culture medium (Sleigh, M. J. (1986) Anal. Biochem. 156.251-256).
a--Compare VerafectinA3 dissolved in DMSO or ethanol.
b--Compare VerafectinA3 on cells 6 hrs to overnight. VerafectinA3 at 10 mg/ml in 100% solvent was diluted to 2.5 mg/ml with water.
Transfection was carried out as for experiment 1. VerafectinA3 was left in contact with the cells for varying times.
Protocol was the same for the Verafectins as described above. Lipofectamine protocol was according to manufacturers instructions. Cos 1 cells were seeded at 5×10^5 /60 mm dish and adhered overnight in DME with 10% FCS.
Solution A: 0.5 μg pSVLCAT/60 mm dish.
Solution B: Lipofectamine 10 and 15 μl 2 mg/ml (mixed formulation 3:1 with DOPE).
OR; VerafectinA3 and VerafectinG2 20 μl 2 mM (2.8 and 2.3 mg/ml respectively) stock.
OR; VerafectinG2 was also tested with an equimolar amount of DOPE. VerafectinG2 and DOPE were mixed in DDME and vortexed for 30 seconds before use. Solutions A and B were combined before overlaying on washed cells.
The serum free incubation period in the presence of test agents and DNA was 6 hrs, then 1 ml DME+10% FCS was added. At 24 hours medium was changed to 2 ml fresh DME+10% FCS until harvest at 48 hrs.
(§1) Cell lines Cos 1 or CHO were transfected with 0.5 μg of pSVLCAT or 2 μg of pPGKlacZ plasmid using a range of concentrations of each transfection compound. The optimal concentration of compound, that is the concentration giving the highest level of CAT at 48 hours or the greatest percentage of lac z (β-galactosidase) staining cells at 24 hours was used to collate data for Table 1. As all compounds were not tested in a single experiment, absolute figures indicating transfection were not used. Rather, symbols are used to indicate the transfection efficiency relative to Lipofectamine (BRL), which was included as a control in all experiments. Table 1 thus indicates the relative efficiencies of a number of compounds in mediating the transfection of at least one cell type.
(§2) All test lipopeptide reagents were originally dissolved at 10 mM in 75% DMSO, and subsequently diluted with water to make a 2 mM stock stored at 4° C. Volumes of 2 mM stock lipopeptide ranging from 2 μl to 15 μl were diluted in 500 μl of DDME. 1 μg of plasmid pSVLCAT was separately diluted in 500 μl of DDME. Solutions were combined for 10-20 min at room temperature before adding to 500 μl of DDME in 60 mm dishes of subconfluent CHO cells (2×10^5 day-1) or Cos 1 cells (5×10^5 day-1); washed free of serum with DDME.
(§3) Cells were incubated for 6 hrs under standard conditions of 37° C. and 5% CO2 for 6 hours. 1.5 ml of DME/Hams+10% FCS (CHO) or DME+10% FCS (Cos 1) was added to the cells for overnight incubation. Fresh DME/Hams+10% FCS or DME+10% FCS was used to replace the medium for a further 24 hours prior to harvest. Cell lysates were prepared and assayed for CAT activity as described above. For Cos 1 cells, culture supernatants were assayed for CAT activity.
For transfection of pSVLCAT and subsequent assay of CAT enzyme, experiments "a" and "b" were carried out as described above.

CHO cells = assay: Transfection of pSVLCAT, CAT assay, CHO; type: cell-based, Chinese Hamster; settings: for CAT activity (mean): "x" peptide experiment a, 25 μl lysate, 20 min assay at 37° C., optimal level
Description: Protocol was the same for Verafectin and Transfectam (see above) with the exception that 0.5 μg of pSVLCAT DNA was used /60 mm dish.
Lipofectamine protocol was according to manufacturer's instructions. 0.5 μg pSVLCAT/60 mm dish. CHO cells seeded 1×10^5 /60 mm dish and adhered overnight in DME/Hams medium with 10% FCS.
Transfectam 5 or 10 μl 1mg/400 μl stock solution.
Lipofectamine 5 or 10 μl 2 mg/ml (mixed formulation 3:1 with DOPE). VerafectinA3 (K3ATP3) and VerafectinG2 (K3G[Glycine]TP2) each at 5, 10 and 15 μl of 2 mM (2.8 and 2.3 mg/ml respectively) stock.
The serum free incubation period in the presence of test agents and DNA was 6 hours, then 1 ml DME/Hams+10% FCS was added. At 24 hrs the medium was changed to 2 ml of fresh DME/Hams+10% FCS until harvest at 48 hrs.
as §1, §2, §3
a. Using the standard transfection procedure described above, and 1 μg plasmid pSVLCAT, these formulations were tested on CHO cells at a single concentration equivalent to 10 μl of Verafectin A2 (2 mM) per sample and compared to unformulated compound and Lipofectamine in the same cell type. CAT production was assayed 48 hours after transfection.

Question: How did the “transfection with second lysine relative to single K” value (Cos 1 cells; "x" peptide experiment b, Cos 1) turn out when CCCCCCCCCCCCCCCC(=O)OCC(CO)(COC(=O)CCCCCCCCCCCCCCC)NC(=O)[C@H](C)NC(=O)[C@H](CCCCN)NC(=O)[C@@H](N)CCCCN [K2ATP2] was run?
Answer: ~5 times

Question: What about the “CAT activity (mean)” value (Cos 1 cells; "x" peptide experiment b, Cos 1, 25 μl lysate, 135 min 37° C.) of the same compound?
Answer: 62,215 cpm

Question: What about the “transfection, linkers A and L compared” value (Cos 1 cells; "y" linker experiment b, Cos 1) of the same compound?
Answer: very similar activities

Question: And the “CAT activity (mean)” value (CHO cells; CHO)?
Answer: 5418 cpm

Question: With CCCCCCCCCCCCCCCC(=O)OCC(CO)(CO)NC(=O)[C@H](C)NC(=O)[C@H](CCCCN)NC(=O)[C@@H](N)CCCCN [K2ATP1] as the compound, how does the “transfection, number of palmitates” value (Cos 1 cells) read?
Answer: very inefficient

Question: How did the “transfection, number of palmitates” value (Cos 1 cells) turn out when CCCCCCCCCCCCCCCC(=O)OCC(COC(=O)CCCCCCCCCCCCCCC)(COC(=O)CCCCCCCCCCCCCCC)NC(=O)[C@H](C)NC(=O)[C@H](CCCCN)NC(=O)[C@@H](N)CCCCN [K2ATP3] was run?
Answer: high levels of transfection

Question: How did the “Transfection (CAT)” value (Cos 1 cells) turn out when CCCCCCCCCCCCCCCC(=O)OCC(CO)(CO)NC(=O)CNC(=O)[C@H](CCCCN)NC(=O)[C@H](CCCCN)NC(=O)[C@@H](N)CCCCN [K3GTP1] (H-KKKG-X1) was run?
Answer: +

Question: What about the “Transfection (CAT)” value (CHO cells; Table 1, CHO, optimised level of agent) of the same compound?
Answer: +

Question: With CCCCCCCCCCCCCCCC(=O)OCC(COC(=O)CCCCCCCCCCCCCCC)(COC(=O)CCCCCCCCCCCCCCC)NC(=O)[C@H](C)NC(=O)[C@H](CCCCN)NC(=O)[C@H](CCCCN)NC(=O)[C@H](CCCCN)NC(=O)[C@H](CCCCN)NC(=O)[C@@H](N)CCCCN [K5ATP3] (H-KKKKKA-{NHC(CH2O-Palmitoyl)3}) as the compound, how does the “CAT activity (mean)” value (CHO cells; CHO) read?
Answer: 1785 cpm

Question: What about the “mean level of CAT activity” value (CHO cells; "x" peptide experiment c, CHO, 2 hours incubation of 20 μl lysate) of the same compound?
Answer: 6363

Question: Which “CAT activity (mean)” value (CHO cells; CHO) does the source give for CCCCCCCCCCCCCCCC(=O)OCC(CO)(COC(=O)CCCCCCCCCCCCCCC)NC(=O)[C@H](C)NC(=O)[C@H](CCCCN)NC(=O)[C@H](CCCCN)NC(=O)[C@H](CCCCN)NC(=O)[C@H](CCCCN)NC(=O)[C@@H](N)CCCCN [K5ATP2] (H-KKKKKA-X5) here?
Answer: 132 cpm

Question: For NCCCC[C@H](NC(=O)[C@H](CCCCN)NC(=O)[C@@H](N)CCCCN)C(=O)NCC(=O)NC(CO)(CO)CO [K3GTP0] (H-KKKG-{NHC(CH2OH)3}), which “Transfection (CAT)” value (Cos 1 cells) is on record?
Answer: -

Question: With CCCCCCCCCCCCCCCC(=O)OCC(CO)(COC(=O)CCCCCCCCCCCCCCC)NC(=O)[C@H](C)NC(=O)[C@H](CCCCN)NC(=O)[C@H](CCCCN)NC(=O)[C@H](CCCCN)NC(=O)[C@@H](N)CCCCN [K4ATP2] (H-KKKKA-X5) as the compound, how does the “Transfection (CAT)” value (Cos 1 cells) read?
Answer: +
